± gives the standard deviation of the averaged measurements.
Experiments:
Conditions in all cases: 72 h
[1] = tested on: Caco-2; assay: relative viability EC50 (midpoint between 100% and the lowest measured viability); higher = less toxic
[2] = tested on: HepG2; assay: as above
[3] = tested on: U2OS; assay: as above
[4] = tested on: Calu-3; assay: as above
[5] = tested on: Vero E6; assay: as above
[6] = tested on: Caco-2; assay: drug sensitivity score (DSS) for viability; higher = more toxic; extreme values may be limits of the assay
[7] = tested on: HepG2; assay: as above
[8] = tested on: U2OS; assay: as above
[9] = tested on: Calu-3; assay: as above
[10] = tested on: Vero E6; assay: as above
[11] = tested on: Caco-2; assay: cell viability relative to DMSO; higher = less toxic
[12] = tested on: HepG2; assay: as above
[13] = tested on: U2OS; assay: as above
[14] = tested on: Calu-3; assay: as above
[15] = tested on: Vero E6; assay: as above

| Compound | relative viability EC50 [1] [µM] | relative viability EC50 [2] [µM] | relative viability EC50 [3] [µM] | relative viability EC50 [4] [µM] | relative viability EC50 [5] [µM] | drug sensitivity score [6] | drug sensitivity score [7] | drug sensitivity score [8] | drug sensitivity score [9] | drug sensitivity score [10] | cell viability ([11]; 1 nM) [%] | cell viability ([11]; 10 nM) [%] | cell viability ([11]; 100 nM) [%] | cell viability ([11]; 1000 nM) [%] | cell viability ([11]; 10000 nM) [%] | cell viability ([12]; 1 nM) [%] | cell viability ([12]; 10 nM) [%] | cell viability ([12]; 100 nM) [%] | cell viability ([12]; 1000 nM) [%] | cell viability ([12]; 10000 nM) [%] | cell viability ([13]; 1 nM) [%] | cell viability ([13]; 10 nM) [%] | cell viability ([13]; 100 nM) [%] | cell viability ([13]; 1000 nM) [%] | cell viability ([13]; 10000 nM) [%] | cell viability ([14]; 1 nM) [%] | cell viability ([14]; 10 nM) [%] | cell viability ([14]; 100 nM) [%] | cell viability ([14]; 1000 nM) [%] | cell viability ([14]; 10000 nM) [%] | cell viability ([15]; 1 nM) [%] | cell viability ([15]; 10 nM) [%] | cell viability ([15]; 100 nM) [%] | cell viability ([15]; 1000 nM) [%] | cell viability ([15]; 10000 nM) [%] |
| --- | --- | --- | --- | --- | --- | --- | --- | --- | --- | --- | --- | --- | --- | --- | --- | --- | --- | --- | --- | --- | --- | --- | --- | --- | --- | --- | --- | --- | --- | --- | --- | --- | --- | --- | --- |
| CN(C)c1cccc(-c2c3c(=O)n(-c4ccccc4Cl)[nH]c3cc(=O)n2C)c1 | > 10 | > 10 | > 10 | > 10 | > 10 | 0.8 | 0 | 0 | 0 | 0 | 100 | 98.3 | 101 | 93.1 | 84.6 | 99.2 | 104 | 94.2 | 97.2 | 87.6 | 99.8 | 96.6 | 101 | 95.2 | 93.7 | 89.9 | 91.3 | 100 | 97.7 | 92.6 | 101 | 104 | 99.6 | 102 | 104 |
| COc1ccc(/C=C\c2cc(OC)c(OC)c(OC)c2)cc1OP(=O)(O)O [fosbretabulin] | 0.0584 | 0.285 | 0.316 | 0.457 | 0.0744 | 15.2 | 14.7 | 14.6 | 8.1 | 24.1 | 104 | 116 | 55.4 | 51.1 | 45.4 | 104 | 108 | 96.7 | 21.9 | 23.9 | 98.4 | 105 | 94 | 25.4 | 19.5 | 104 | 120 | 90.2 | 61.4 | 45.9 | 103 | 100 | 38.4 | 13 | 7 |
| COc1cc(N)c(Cl)cc1C(=O)CCC1CCN(CCNS(C)(=O)=O)CC1 | > 10 | > 10 | > 10 | > 10 | > 10 | 0 | 0.3 | 0 | 0 | 0 | 95.1 | 97.3 | 95.5 | 92.3 | 92.3 | 100 | 100 | 98.2 | 89 | 95.5 | 92.6 | 101 | 94.2 | 99.2 | 92.6 | 99.6 | 92.6 | 88.3 | 99.1 | 95.9 | 99.7 | 101 | 100 | 93.9 | 98.3 |
| Nc1nc(OCc2cc(Br)cs2)c2[nH]cnc2n1 [lomeguatrib] | > 10 | > 10 | > 10 | > 10 | > 10 | 0 | 0 | 0 | 0 | 0 | 96.9 | 90.9 | 110 | 96.1 | 100 | 87.7 | 99.9 | 84 | 98.8 | 100 | 101 | 94.6 | 106 | 100 | 99.7 | 106 | 103 | 95.8 | 102 | 93 | 105 | 104 | 95.4 | 102 | 99.9 |
| NC[C@H]1O[C@H](O[C@H]2[C@H](O[C@@H]3O[C@H](CO)[C@@H](O)[C@H]3O)[C@@H](O)[C@H](N)C[C@@H]2N)[C@H](N)[C@@H](O)[C@@H]1O [ribostamycin-sulfate] | > 10 | > 10 | > 10 | > 10 | > 10 | 0.9 ± 1.3 | 0.05 ± 0.071 | 0 | 0 | 0 | 94.5 ± 5 | 97.1 ± 2.4 | 87.5 ± 12 | 93 ± 2 | 88.5 ± 9.1 | 99.2 ± 0.85 | 106.8 ± 0.21 | 97 ± 5.2 | 102 ± 4.5 | 93.6 ± 8.2 | 96.8 ± 1.1 | 98.8 ± 2.2 | 96.3 ± 2.3 | 101 ± 4.4 | 98.5 ± 1.5 | 93.8 ± 8.4 | 97.7 ± 13 | 90.5 ± 5 | 104 ± 9.5 | 89.6 ± 0.99 | 103 ± 8.4 | 94 ± 5.7 | 100 ± 4.7 | 97.2 ± 2.3 | 102 ± 2.2 |
| c1ccc2c(CC3=NCCN3)cccc2c1 [naphazoline] | > 10 | > 10 | > 10 | > 10 | > 10 | 0 | 0 | 0 | 0 | 0 | 95.6 | 102 | 90.1 | 101 | 93.2 | 96.1 | 102 | 102 | 98.4 | 118 | 97 | 101 | 94.9 | 97.8 | 93.9 | 93.6 | 93.6 | 109 | 107 | 89 | 102 | 99.4 | 95.5 | 97.7 | 93.3 |
| C[C@H](CSC(=O)c1ccccc1)C(=O)N1C[C@@H](Sc2ccccc2)C[C@H]1C(=O)O [zofenopril-calcium] | > 10 | > 10 | > 10 | > 10 | > 10 | 0 | 0 | 0 | 0.2 | 0 | 86.1 | 94.3 | 106 | 96.6 | 99.6 | 101 | 108 | 94.7 | 102 | 95.3 | 98.4 | 102 | 99.6 | 95.1 | 101 | 92.9 | 90.7 | 105 | 96 | 88.3 | 114 | 99.9 | 103 | 101 | 106 |
